Reference: doi:10.1101/2023.12.14.571638v1, “Structural basis of a regulatory switch in mammalian complex I” (biorxiv, 2023)

Experiments:
[1] = target: T1, complex I (CI), ubiquinone-10-binding site (Bos taurus, UniProt P03887+P17694+P42026); test: cryoEM structure in proteoliposomes; conditions: CI-out-closed state, 2.5 Å; native substrate, deep-bound
T1 construct: gene NDUFS2; native 45-subunit complex from heart mitochondria, purified in LMNG, reconstituted in proteoliposomes (CI-PLs); natural variant NDUFS2-129 modelled as Arg; with NADH-ubiquinone oxidoreductase chain 3; NADH-ubiquinone oxidoreductase chain 6; NADH dehydrogenase [ubiquinone]; 1 alpha subcomplex subunit 9, mitochondrial
T1 sequence (P17694 34-463): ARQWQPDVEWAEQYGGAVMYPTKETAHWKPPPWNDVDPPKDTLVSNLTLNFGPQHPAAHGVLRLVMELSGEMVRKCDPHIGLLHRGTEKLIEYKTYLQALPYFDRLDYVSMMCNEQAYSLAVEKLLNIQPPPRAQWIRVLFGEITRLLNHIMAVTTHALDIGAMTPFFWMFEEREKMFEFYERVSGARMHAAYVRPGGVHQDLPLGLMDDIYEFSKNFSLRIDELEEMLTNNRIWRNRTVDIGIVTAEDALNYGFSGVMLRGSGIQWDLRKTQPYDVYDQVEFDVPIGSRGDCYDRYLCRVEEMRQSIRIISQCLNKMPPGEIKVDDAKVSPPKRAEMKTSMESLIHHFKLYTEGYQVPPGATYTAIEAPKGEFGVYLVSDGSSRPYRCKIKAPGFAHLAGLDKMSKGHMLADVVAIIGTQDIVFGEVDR
T1 sequence (P03887 whole entry): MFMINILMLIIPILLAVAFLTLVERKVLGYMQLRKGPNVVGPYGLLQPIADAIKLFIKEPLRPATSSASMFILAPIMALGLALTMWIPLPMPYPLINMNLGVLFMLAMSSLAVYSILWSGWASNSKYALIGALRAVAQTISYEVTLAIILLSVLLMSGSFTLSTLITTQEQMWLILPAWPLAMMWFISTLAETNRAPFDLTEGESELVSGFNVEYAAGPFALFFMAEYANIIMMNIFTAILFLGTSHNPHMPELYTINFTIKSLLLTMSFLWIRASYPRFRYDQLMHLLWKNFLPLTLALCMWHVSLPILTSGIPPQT
T1 sequence (P42026 38-216): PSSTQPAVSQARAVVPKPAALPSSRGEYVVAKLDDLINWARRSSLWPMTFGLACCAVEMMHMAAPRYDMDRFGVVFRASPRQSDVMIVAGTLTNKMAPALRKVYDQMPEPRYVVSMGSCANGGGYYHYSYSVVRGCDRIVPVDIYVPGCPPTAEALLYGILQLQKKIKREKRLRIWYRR

[2] = target: T2, complex I (CI), NADH-binding site (Bos taurus, UniProt P25708); test: NADH:APAD+ oxidoreduction, absorbance; type: biochemical; conditions: 500 µM APAD+, 100 µM NADH, 500 nM piericidin A; pH 7.5, 32 °C
T2 construct: gene NDUFV1; native 45-subunit complex from heart mitochondria, purified in LMNG, in proteoliposomes; with NADH dehydrogenase [ubiquinone] flavoprotein 2, mitochondrial; NADH-ubiquinone oxidoreductase 75 kDa subunit, mitochondrial; NADH dehydrogenase [ubiquinone] iron-sulfur protein 2, mitochondrial; NADH dehydrogenase [ubiquinone] iron-sulfur protein 7, mitochondrial
T2 sequence (P25708 21-464, one chain of several): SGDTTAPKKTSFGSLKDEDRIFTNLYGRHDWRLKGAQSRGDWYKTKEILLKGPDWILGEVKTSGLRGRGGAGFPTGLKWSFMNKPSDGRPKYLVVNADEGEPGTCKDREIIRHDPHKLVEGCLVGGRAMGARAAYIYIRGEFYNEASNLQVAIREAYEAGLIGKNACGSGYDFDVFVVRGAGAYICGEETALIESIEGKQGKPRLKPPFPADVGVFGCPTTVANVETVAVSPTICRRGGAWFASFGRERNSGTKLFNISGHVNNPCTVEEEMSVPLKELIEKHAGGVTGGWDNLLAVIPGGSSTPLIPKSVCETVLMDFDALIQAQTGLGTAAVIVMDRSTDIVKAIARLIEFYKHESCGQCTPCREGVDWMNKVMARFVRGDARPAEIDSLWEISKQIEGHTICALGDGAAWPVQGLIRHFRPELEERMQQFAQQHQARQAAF

[3] = target: T2, complex I (CI), NADH-binding site; test: NADH oxidation by CI-PLs with AOX, absorbance; type: biochemical; conditions: 200 µM NADH, ubiquinone-10, AOX; pH 7.5, 32 °C

Q: How did the “cryoEM structure in proteoliposomes” value [1] turn out when `COC1=C(OC)C(=O)C(C/C=C(\C)CC/C=C(\C)CC/C=C(\C)CC/C=C(\C)CC/C=C(\C)CC/C=C(\C)CC/C=C(\C)CC/C=C(\C)CC/C=C(\C)CCC=C(C)C)=C(C)C1=O` [ubiquinone-10] was run?
A: The value was “The CI-in/out-closed structures exhibit well-ordered density for ubiquinone-10, inserted fully into its active site”.

Q: How did the “NADH:APAD+ oxidoreduction, absorbance” value [2] turn out when `CC(=O)c1ccc[n+]([C@@H]2O[C@H](COP(=O)([O-])OP(=O)(O)OC[C@H]3O[C@@H](n4cnc5c(N)ncnc54)[C@H](O)[C@@H]3O)[C@@H](O)[C@H]2O)c1` [APAD^+] was run?
A: The value was “Complex I concentration in CI-PLs was determined using the NADH:APAD^+ oxidoreduction reaction”.

Q: Which “NADH oxidation by CI-PLs with AOX, absorbance” value [3] does the source give for `NC(=O)C1=CN([C@@H]2O[C@H](COP(=O)(O)OP(=O)(O)OC[C@H]3O[C@@H](n4cnc5c(N)ncnc54)[C@H](O)[C@@H]3O)[C@@H](O)[C@H]2O)C=CC1` [NADH] here?
A: Its value is “NADH:O2 oxidoreduction rates were measured as the rates of NADH oxidation”.
